In patent US10813891B2, “Method of inhibiting chronification of pain” (priority 2011, dated 2020):
Read-outs that look alike come from different tables or passages of the source.

System: CCI-SN rats
Type: in vivo, rat
Description: Male Sprague-Dawley rats (Charles River Laboratories, L'Arbresle, France), weighing 150-200 g on arrival, were used. Animals were maintained under controlled environmental conditions (22±1° C., 60% relative humidity, 12 h/12 h light/dark cycle, food and water ad libitum) starting from reception in the laboratory, for at least 1 week before any intervention or treatment and thereafter, until euthanasia.
Rats were anaesthetized as above and the common sciatic nerve was exposed. Using a dissection microscope (2× magnification), four chromic catgut (5-0) ligations were tied loosely with about 1 mm spacing, proximally to the sciatic trifurcation (Bennett and Xie, 1988). Finally, the skin and muscle were sewed using silk sutures (4-0). In sham-operated animals, the same surgery was performed, but the nerve was not ligated.
Tapentadol (1, 3 and 10 mg/kg i.p.), reboxetine (10 mg/kg i.p.), morphine (1 and 3 mg/kg s.c.) or their vehicle (0.9% NaCl) were injected acutely 14 days after surgery, when allodynia/hyperalgesia reached a plateau in both CCI-SN and CCI-ION rats. Behavioral tests were performed at various times for up to 4 h after injection. In drug association procedure, reboxetine or saline was administered 15 min before morphine or saline.
Subchronic treatment consisted of twice daily injections of tapentadol (10 mg/kg, i.p. at 10:00 am and 6:00 pm) or saline for 4 days starting on the 15th day after nerve ligation in both CCI-ION and CCI-SN rats. Animals were further injected with tapentadol (10 mg/kg i.p.) or saline at 10:00 am the following day (19th day post-surgery), and assessment of allodynia with von Frey filament tests (see below) was made at various times up to 4 hours after this injection. All rats were killed by decapitation 4 hours after the last injection for real-time qRT-PCR determinations of specific mRNAs in ganglia and central tissues (see below).
Before testing, each rat was habituated for 2 h as above, and mechanical sensitivity was then determined with a graded series of […] von Frey filaments, that produced a bending force of 6, 8, 10, 12, 15, 26, and 60 g, respectively. The stimuli were applied within the SN territory (lateral part of the hind paw sole). Each filament was tested three times on the nerve-injured side in increasing order starting with the filament producing the lowest force. As for the CCI-ION rats, the von Frey filaments were applied at least 3 seconds after the rat had returned to its initial resting state. The minimal force filament for which animals presented either a brisk paw withdrawal and/or an escape attempt in response to at least 2 out of the 3 stimulations allowed determination of the mechanical response threshold. The 60.00 g filament was chosen as the cutoff threshold to inhibit any tissue injury.
A—Two weeks after unilateral chronic constriction injury to the sciatic nerve, pressure threshold values (as g) to trigger nocifensive responses to von Frey filaments application onto the plantar surface of ipsilateral hindpaw were determined at various times after acute injection of tapentadol (1, 3 or 10 mg/kg, i.p.) or saline. B—On day 15 (D on abscissa) after nerve ligation, rats were treated subchronically with tapentadol (10 mg/kg, i.p., twice daily, at 10:00 AM and 6:00 PM) or saline for four days. On the following day (day 19 after surgery), both tapentadol- and saline-pretreated CCI-SN rats were injected with tapentadol (10 mg/kg, i.p.; 0 on abscissa) and then subjected to von Frey filaments' test applied to ipsilateral hindpaw for determination of pressure threshold values (as g) at various times thereafter.

CC[C@@H](c1cccc(O)c1)[C@@H](C)CN(C)C [Tapentadol, (−)-(1R,2R)-3-(3-dimethylamino-1-ethyl-2-methyl-propyl)-phenol]
anti-allodynic effect after subchronic pretreatment vs saline pretreatment (10 mg/kg i.p. twice daily for four days, challenge 10 mg/kg i.p. day 19): produced the same anti-allodynic effects
increase in pressure threshold value (acute 1 mg/kg i.p., first 15-30 min after injection, non significant): approximately 40%
pressure threshold values (anti-allodynic effect) (acute 3 mg/kg i.p.): also increased pressure threshold values, but to a lower extent than 10 mg/kg i.p.
pressure threshold values (anti-allodynic effect) (acute 10 mg/kg i.p., 15-30 min after administration): no longer differed from healthy control values
mechanical allodynia (acute 10 mg/kg i.p., 90 min after injection): mechanical allodynia did not significantly differ from that measured in saline-treated CCI-SN rats
